Data reported in patent US11034650B2, “Compounds useful for treating a Mannheimia haemolytica or Histophilus somni infection” (Intervet Inc., priority 2016, dated 2021).
In brackets after ≈: the same amount, converted by molar mass.

Experiments:
Type in all cases: cell-based
[1] = system: Mannheimia haemolytica MH 13093 (XB0472-6014.1, BRD field isolate); assay: MIC, broth-microdilution (CLSI VET01-A4), strain MH 13093; settings: Mannheimia haemolytica strain MH 13093, broth-microdilution; unit assumed
Protocol: (§1) For example, representative compounds were tested against ***, Mannheimia haemolytica and Pasteurella multocida, using the conventional broth-dilution assay.
(§2) The Minimum inhibitory concentrations (MIC) of compounds according to the invention for a number of veterinary bacterial pathogens were determined by the broth-microdilution method according to CLSI document VET01-A4.
(§3) Microdilution trays containing a doubling dilution series of the test compound were used for the tests. The MIC results were interpreted according to the CLSI documents VET01-S3. The lowest concentration of compound at which no visible growth (i.e. no turbidity) detected by the unaided eye was recorded as the MIC.

[2] = system: Pasteurella multocida PM 12080 (IV102277-0093, BRD field isolate); assay: MIC, broth-microdilution (CLSI VET01-A4), strain PM 12080; settings: Pasteurella multocida strain PM 12080, broth-microdilution; unit assumed
Protocol: as §1, §2, §3

[3] = system: Mannheimia haemolytica MH 6374 (ATCC 33396, reference strain); assay: MIC, broth-microdilution (CLSI VET01-A4), strain MH 6374; settings: Mannheimia haemolytica strain MH 6374, broth-microdilution; unit assumed
Protocol: as §1, §2, §3

[4] = system: Mannheimia haemolytica MH 13065 (XB0446-6003.9, BRD field isolate); assay: MIC, broth-microdilution (CLSI VET01-A4), strain MH 13065; settings: Mannheimia haemolytica strain MH 13065, broth-microdilution; unit assumed
Protocol: as §1, §2, §3

[5] = system: Pasteurella multocida PM 6267 (P 2225 (L386), reference strain, mouse infection strain); assay: MIC, broth-microdilution (CLSI VET01-A4), strain PM 6267; settings: Pasteurella multocida strain PM 6267, broth-microdilution; unit assumed
Protocol: as §1, §2, §3

[6] = system: Pasteurella multocida PM 10775 (080130003051, BRD field isolate); assay: MIC, broth-microdilution (CLSI VET01-A4), strain PM 10775; settings: Pasteurella multocida strain PM 10775, broth-microdilution; unit assumed
Protocol: as §1, §2, §3

[7] = system: Mannheimia haemolytica MH 6357 (M7/2, reference strain, cattle infection strain); assay: MIC, broth-microdilution (CLSI VET01-A4), strain MH 6357; settings: Mannheimia haemolytica strain MH 6357, broth-microdilution; unit assumed
Protocol: as §1, §2, §3

[8] = system: Mannheimia haemolytica MH 12587 (1071, BRD field isolate, macrolide-resistance: erm+, E+); assay: MIC, broth-microdilution (CLSI VET01-A4), strain MH 12587; settings: Mannheimia haemolytica strain MH 12587, broth-microdilution; unit assumed
Protocol: as §1, §2, §3

[9] = system: Mannheimia haemolytica MH 10720 (154, BRD field isolate); assay: MIC, broth-microdilution (CLSI VET01-A4), strain MH 10720; settings: Mannheimia haemolytica strain MH 10720, broth-microdilution; unit assumed
Protocol: as §1, §2, §3

Compound | MIC PM 12080 [2] [µg/mL] | MIC PM 6267 [5] [µg/mL] | MIC PM 10775 [6] [µg/mL] | MIC MH 13093 [1] [µg/mL] | MIC MH 6374 [3] [µg/mL] | MIC MH 13065 [4] [µg/mL] | MIC MH 6357 [7] [µg/mL] | MIC MH 12587 [8] [µg/mL] | MIC MH 10720 [9] [µg/mL]
CC(C)(C)C1CCN(Cc2ccc(C#Cc3ccc(C(=O)N[C@@H](CO)C(=O)NO)cc3)cc2)CC1 [Compound 79] | 1.6 (≈ 3.35 µM) | 0.4 (≈ 0.838 µM) | ≤ 0.1 | 25 (≈ 52.3 µM) | 25 (≈ 52.3 µM) | 12.5 (≈ 26.2 µM) | 12.5 (≈ 26.2 µM) | 25 (≈ 52.3 µM) | 3.1 (≈ 6.49 µM)
COc1ccc(CNCc2ccc(C#Cc3ccc(C(=O)N[C@@H](CO)C(=O)NO)cc3)cc2)cc1 [Compound 88] | 1.6 (≈ 3.38 µM) | 0.2 (≈ 0.422 µM) | ≤ 0.1 | 12.5 (≈ 26.4 µM) | 1.6 (≈ 3.38 µM) | 3.1 (≈ 6.55 µM) | 6.3 (≈ 13.3 µM) | 6.3 (≈ 13.3 µM) | 1.6 (≈ 3.38 µM)
CC[C@H](C)[C@H](NC(=O)c1ccc(C#Cc2ccc(CN3CCc4ccccc4C3)cc2)cc1)C(=O)NO [Compound 124] | 3.1 (≈ 6.25 µM) | 3.1 (≈ 6.25 µM) | 0.8 (≈ 1.61 µM) | 12.5 (≈ 25.2 µM) | 12.5 (≈ 25.2 µM) | 12.5 (≈ 25.2 µM) | 6.3 (≈ 12.7 µM) | 25 (≈ 50.4 µM) | 3.1 (≈ 6.25 µM)
O=C(N[C@@H](CO)C(=O)NO)c1ccc(C#Cc2ccc(CNCc3ccccc3)cc2)cc1 [Compound 85] | 0.8 (≈ 1.8 µM) | ≤ 0.1 | ≤ 0.1 | 3.1 (≈ 6.99 µM) | 0.8 (≈ 1.8 µM) | 1.6 (≈ 3.61 µM) | 3.1 (≈ 6.99 µM) | 3.1 (≈ 6.99 µM) | 1.6 (≈ 3.61 µM)
O=C(N[C@@H](CO)C(=O)NO)c1ccc(C#Cc2ccc(CN3CCC(c4ccccc4)CC3)cc2)cc1 [Compound 80] | 0.8 (≈ 1.61 µM) | ≤ 0.1 | ≤ 0.1 | 6.3 (≈ 12.7 µM) | 1.6 (≈ 3.22 µM) | 1.6 (≈ 3.22 µM) | 1.6 (≈ 3.22 µM) | 3.1 (≈ 6.23 µM) | 0.8 (≈ 1.61 µM)
O=C(N[C@@H](CO)C(=O)NO)c1ccc(C#Cc2ccc(CN3CCN(c4ccccn4)CC3)cc2)cc1 [Compound 82] | 0.8 (≈ 1.6 µM) | ≤ 0.1 | ≤ 0.1 | 3.1 (≈ 6.21 µM) | 0.8 (≈ 1.6 µM) | 6.3 (≈ 12.6 µM) | 1.6 (≈ 3.2 µM) | 3.1 (≈ 6.21 µM) | 0.4 (≈ 0.801 µM)

Further lines, with some results ahead:

MIC PM 12080 [2] [µg/mL] | MIC PM 6267 [5] [µg/mL] | MIC PM 10775 [6] [µg/mL] | Compound | MIC MH 13093 [1] [µg/mL] | MIC MH 6374 [3] [µg/mL] | MIC MH 13065 [4] [µg/mL] | MIC MH 6357 [7] [µg/mL] | MIC MH 12587 [8] [µg/mL] | MIC MH 10720 [9] [µg/mL]
0.4 (≈ 0.827 µM) | 0.2 (≈ 0.414 µM) | ≤ 0.1 | CC[C@H](C)[C@H](NC(=O)c1ccc(C#Cc2ccc(CNCc3ccc(C)cc3)cc2)cc1)C(=O)NO [Compound 189] | 3.1 (≈ 6.41 µM) | 3.1 (≈ 6.41 µM) | 1.6 (≈ 3.31 µM) | 1.6 (≈ 3.31 µM) | 3.1 (≈ 6.41 µM) | –
12.5 (≈ 29.8 µM) | 3.1 (≈ 7.39 µM) | 0.8 (≈ 1.91 µM) | C=CCNCc1cccc(C#Cc2ccc(C(=O)N[C@H](C(=O)NO)[C@@H](C)CC)cc2)c1 [Compound 49] | 12.5 (≈ 29.8 µM) | 12.5 (≈ 29.8 µM) | 12.5 (≈ 29.8 µM) | 12.5 (≈ 29.8 µM) | 25 (≈ 59.6 µM) | 6.3 (≈ 15 µM)
1.6 (≈ 3.31 µM) | 0.8 (≈ 1.65 µM) | 0.4 (≈ 0.827 µM) | Cc1ccc(CNCc2ccc(C#Cc3ccc(C(=O)N[C@H](C(=O)NO)C(C)C)cc3)cc2)cc1C [Compound 111] | 3.1 (≈ 6.41 µM) | 3.1 (≈ 6.41 µM) | 3.1 (≈ 6.41 µM) | 3.1 (≈ 6.41 µM) | 12.5 (≈ 25.8 µM) | 0.8 (≈ 1.65 µM)
≤ 0.1 | ≤ 0.1 | ≤ 0.1 | CC(C)[C@H](NC(=O)c1ccc(C#Cc2ccc(CNC3CC3)cc2)cc1)C(=O)NO [Compound 92] | 0.2 (≈ 0.493 µM) | ≤ 0.1 | ≤ 0.1 | 0.8 (≈ 1.97 µM) | 0.2 (≈ 0.493 µM) | ≤ 0.1
0.8 (≈ 1.89 µM) | 0.2 (≈ 0.472 µM) | ≤ 0.1 | COCCNCc1ccc(C#Cc2ccc(C(=O)N[C@H](C(=O)NO)C(C)C)cc2)cc1 [Compound 96] | 3.1 (≈ 7.32 µM) | 0.8 (≈ 1.89 µM) | 1.6 (≈ 3.78 µM) | 3.1 (≈ 7.32 µM) | 12.5 (≈ 29.5 µM) | 0.8 (≈ 1.89 µM)
